Experimental findings from patent US20250018052A1, “ANTI-HER3 ANTIBODY DRUG CONJUGATE, COMPOSITION THEREOF, AND USE THEREOF” (CHIA TAI TIANQING PHARMACEUTICAL GROUP CO., LTD., priority 2021, published 2025) are described below.

Assay [1] has as its system BT474 cells with high HER3 expression level. The experiment in a line: Cell killing activity (CellTiter-Glo), BT474. The assay is classed as cell-based. Particulars: cultured for 96 h, 120 h, or 144 h. Here is the method:
(§1) Cells in the logarithmic growth phase were added to a 96-well plate at 100 μL/well, and the cell density was 1×10^4/mL or […]. Adherence culture was carried out at 37° C. and 5% CO2 overnight. Sample preparation: the patritumab-eribulin conjugates were each formulated into test samples with a basal medium containing 10% FBS (initial concentration of 5 μg/mL, 5-fold gradient dilution, nine gradients). Cells subjected to overnight adherence culture were taken out. For the experimental groups, the diluted test sample was added at 50 μL/well, and for the control group, the basal medium containing 10% FBS was added at 50 µL/well. The cells were then cultured for 96 h, 120 h, or 144 h, and then a CellTiter-Glo Luminescent Cell kit (Promega, Cat No.: G7572) was used for assay. The 96-well plate was taken out, the CTG detection solution (Promega. Cat No.: G7572) was added at 75 μL/well, and the mixture was well mixed by shaking and incubated at room temperature in the dark for 10 min. Then 180 μL of solution was pipetted from each well and transferred to an opaque white plate, bubbles were removed, chemiluminescence values were read, and killing rates were calculated.
(§2) Data were analyzed using Graphpad Prism5.
(Cellular ATP, detected with luciferase, serves as a proxy for viable cell number.)

The subject of assay [2] is HCC1569 cells with high HER3 expression level. In words: Cell killing activity (CellTiter-Glo), HCC1569. The assay is classed as cell-based. Particulars: cultured for 96 h, 120 h, or 144 h. Here is the method: as §1, §2
The test system of assay [3] is NCI-N87 cells with medium HER3 expression level. In words: Cell killing activity (CellTiter-Glo), NCI-N87. It counts as cell-based. Conditions: cultured for 96 h, 120 h, or 144 h. As for the experimental part: as §1, §2
Assay [4] has as its system SKBR3 cells with medium HER3 expression level. In words: Cell killing activity (CellTiter-Glo), SKBR3. Conditions: cultured for 96 h, 120 h, or 144 h. It counts as cell-based. Here is the method: as §1, §2
Assay [5] concerns JIMT-1 human breast cancer cells. The experiment in a line: Nude mouse subcutaneous xenograft tumor model of JIMT-1 human breast cancer cells. It counts as in vivo, nude mice. Particulars: 3 mg/kg, tail vein injection, Q1W, d21; for Tumor growth inhibition rate 1-T/C: from relative tumor volume; for Tumor inhibition rate TGI: from tumor weight. As for the experimental part:
The in vivo efficacy of the patritumab-eribulin conjugates prepared in Example 4 above was evaluated by the nude mouse subcutaneous xenograft tumor models of JIMT-1 human breast cancer cells, a trastuzumab-resistant cell strain.
SPF-grade female nude mice (from Changzhou Cavens Laboratory Animal Ltd.) were inoculated subcutaneously at the right side armpit with 2×10^6 JIMT-1 cells per mouse. When the mean tumor volume reached […], the animals were divided into 5 groups of 6, and the specific grouping and administration regimen are shown in Table 6.
The day of grouping was do, and the tail vein administration was performed at d1 after grouping. The tumor volume was measured 2-3 times a week, and meanwhile, the mice were weighed and the data were recorded; the general behavior of the mice was observed and recorded every day. After the experiment was completed, the tumors were removed, weighed, and photographed.

Assay [6] deals with MDA-MB-468 cells with medium HER3 expression level. In words: Cell killing activity (CellTiter-Glo), MDA-MB-468. The assay is classed as cell-based. Conditions: cultured for 96 h, 120 h, or 144 h. As for the experimental part:
as §1, §2

Assay [7] has as its system JIMT-1 cells with medium HER3 expression level. The experiment in a line: Cell killing activity (CellTiter-Glo), JIMT-1. Conditions: cultured for 96 h, 120 h, or 144 h. The assay is classed as cell-based, human. Here is the method: as §1, §2
Assay [8] concerns MCF-7 cells with high HER3 expression level. In words: Cell killing activity (CellTiter-Glo), MCF-7. The assay is classed as cell-based. Particulars: cultured for 96 h, 120 h, or 144 h. Here is the method: as §1, §2

What is called EC50 is the midpoint of the concentration-response curve. Higher therefore signals a need for much substance. As to “Patritumab-DDDXd-D8: patritumab-DDDXd conjugate (MC-GGFG-DDDXd, deuterated MC-GGFG-DXd) with a DAR of 7.9, used as control [reference compound]”, the EC50 in assay [1] is 10400 pM; in assay [2], 18300 pM; in assay [3] it was 371 pM; in assay [4] it was 57800 pM. In addition, in assay [5], the “Tumor growth inhibition rate 1-T/C” value stood at 24.4%. In addition, in assay [5], the “Tumor inhibition rate TGI” value is listed as 26.6%.

On to “Patritumab-eribulin-D2: patritumab-eribulin conjugate (MC-GGFG-eribulin linker-payload) with a DAR of 2.6”, for which the half-maximal effective concentration (EC50) in assay [1] is 93.5 pM; in assay [6], 12100 pM; in assay [2], 3600 pM; in assay [7], 10500 pM; in assay [4], 194 pM; in assay [8] it was 1170 pM. Moreover, the “Tumor growth inhibition rate 1-T/C” value in assay [5] is given as 36.6%. Further, the “Tumor inhibition rate TGI” value in assay [5] was 41.1%.

As for “Patritumab-eribulin-D4: patritumab-eribulin conjugate (MC-GGFG-eribulin linker-payload) with DAR of 4.0-4.2”, the EC50 in assay [1] is 39.8 pM; in assay [6], 1410 pM; in assay [2], 778 pM; in assay [7], 3270 pM; in assay [3], 13900 pM; in assay [4] it was 43 pM. The substance further came in with an EC50 in assay [8] of 99.4 pM. Also, the “Tumor growth inhibition rate 1-T/C” value in assay [5] is reported as 65.9%. Further, the “Tumor inhibition rate TGI” value in assay [5] was 68.9%.

Turning to “Patritumab-eribulin-D8: patritumab-eribulin conjugate (MC-GGFG-eribulin linker-payload) with a DAR of 7.6”, the half-maximal effective concentration (EC50) in assay [1] was 18.1 pM; in assay [6], 321 pM; in assay [2], 246 pM; in assay [7], 946 pM; in assay [3], 690 pM; in assay [4] it was 23.2 pM. The EC50 in assay [8] was found to be 36.1 pM. The “Tumor growth inhibition rate 1-T/C” value in assay [5] came to 82.9%. Besides, the “Tumor inhibition rate TGI” value in assay [5] was 84.3%.
